Experimental data: patent US20100261630A1, “ANTIMICROBIAL HAND WASH FORMULATIONS” (priority 2006, published 2010)

Experiment: Patch irritancy test on test subject's skin
Details: control diluted to 0.2 percent of the original volume into deionized water

CCCCCCCCCCCCOS(=O)(=O)[O-].[Na+] [Sodium Lauryl Sulfate]
Classification: Experimental Cumulative | Irritancy Score: 14918.5
